# Where two headings read alike, the source gives them in different places. Marks after values point to notes of the source that are not given here.
# Columns and labels:
# [1] = cited from earlier work
# [2] = Human plasma protein binding (ultracentrifugation or rapid equilibrium dialysis); type: in vitro ADME; settings: for fraction unbound / fraction unbound at 6 h: pH 7.4, read-out: fu (fraction unbound in plasma); for fraction unbound: neat human plasma, 37°C, concentration comparable to Caco-2 assay
# Procedure: Binding was assessed using one of two methods: ultracentrifugation ([31]) using neat human plasma or rapid equilibrium dialysis (RED) using either neat or diluted plasma. […] To allow analysis with a single calibration curve, the total plasma and protein-free supernatant samples were ‘matrix-matched’ by taking aliquots of protein-free supernatant samples and adding to fresh tubes containing an equal volume of blank plasma, or taking aliquots of the total plasma samples and adding to fresh tubes containing an equal volume of Dulbecco’s phosphate-buffered saline (DPBS). In this way, the final composition of both the protein-free supernatant samples and the total plasma samples were ‘matched’ prior to the analysis against a common calibration curve prepared in a 1:1 mixture of human plasma and DPBS. All samples were then stored frozen at −80°C until analysis.
# The holding plate was then placed on a plate shaker (set at 800 rpm; ThermoMixer C, Eppendorf) and maintained at 37°C under a 2% CO2 atmosphere. The dialysis was conducted for 6 h, assuming steady state was achieved by the end of this period ([32]). Samples were then removed from both the donor and dialysate chambers of each RED insert. […] Samples were matrix matched as described above (but using PBS buffer instead of DPBS) and stored at −80°C until analysis.
# For the more lipophilic compounds with potential for very high binding, the RED method was used with diluted plasma to increase the chance of detecting concentrations in the dialysate samples. Diluted human plasma (10% v/v in pH 7.4 phosphate buffered saline) was spiked with each compound (at 10% of the concentration used for the Caco-2 experiment with neat plasma) and binding conducted as described above. The binding in neat plasma was then calculated by correcting for the dilution as described below.
# For binding measurements in neat plasma by ultracentrifugation, the fraction unbound (fu) was calculated from the ratio of the average unbound concentration in protein free supernate (Cunbound) to the average total concentration in non-centrifuged plasma (Ctotal). The standard deviation (SD) for the fu value was calculated using the propagation of errors approach as described previously ([33]). For binding measurements using the RED method in neat plasma, fu was calculated from the ratio of the dialysate to total plasma concentration for each dialysis unit and the mean and SD calculated for replicate units (n = 3).
# For RED binding assessments using 10% plasma, the fu − diluted for individual dialysis units was calculated in the same way as described above.
# [3] = Caco-2 permeability assay with pH 7.4 buffer or human plasma in both chambers; settings: human; for efflux ratio: Caco-2, pH 7.4, Efflux ratio (B-A/A-B)
# Caco-2 cell monolayer [4] = assay: as above; settings: for Mass balance: both directions (where assessed) and both media; for Permeability Classification: criteria of Table V
# in vitro = settings: human; for Papp A→B: Caco-2, pH 7.4, Papp A-B; for Papp B→A: Caco-2, pH 7.4, Papp B-A
# Caco-2 cell monolayer [5] = system: Caco-2 cell monolayer
# [6] = human, values from the literature
# [7] = Caco-2, pH 7.4, Papp A-B, buffer pH 7.4 in both chambers
# [8] = Caco-2, pH 7.4, Papp A-B, human plasma in both chambers, corrected for fu in donor
# [9] = buffer (HBSS/HEPES pH 7.4) in both chambers
# [10] = RED with diluted human plasma (10% v/v), corrected for dilution, < values from LLOQ
# [11] = Caco-2, pH 7.4, Papp B-A, human plasma in both chambers, corrected for fu in donor
# [12] = Caco-2, pH 7.4, Papp B-A, buffer pH 7.4 in both chambers
fraction unbound [2],"Papp A→B [3, 7] [×10⁻⁶ cm/s]","Papp A→B [3, 8] [×10⁻⁶ cm/s]",Mass balance A-B (Caco-2 cell monolayer [4]; [9]) [%],Mass balance A-B (Caco-2 cell monolayer [4]; human plasma in both chambers),Permeability Classification (Caco-2 cell monolayer [4]; buffer pH 7.4),Mass balance B-A (Caco-2 cell monolayer [4]; buffer pH 7.4 in both chambers) [%],Mass balance B-A (Caco-2 cell monolayer [4]; human plasma in both chambers),Permeability Classification (Caco-2 cell monolayer [4]; human plasma),"Papp B→A [3, 12] [×10⁻⁶ cm/s]",Compound,"Human FA (fraction absorbed) [1, 6] [%]",other results
0.92,0.99 ± 0.11,2.1 ± 0.058,97 ± 11,92 ± 7.2%,,,,,,"CNC(=C[N+](=O)[O-])NCCSCc1ccc(CN(C)C)o1 [Ranitidine, ranitidine]",50,Mass balance (Caco-2 cell monolayer [4]): > 80%
,,> 300,<10,99 ± 1.2%,Low (Papp < 0.839),<10,97 ± 2.3%,High (Papp ≥ 8.15),,"O=C1C(O)=C([C@H]2CC[C@H](c3ccc(Cl)cc3)CC2)C(=O)c2ccccc21 [Atovaquone, atovaquone]",,"fraction unbound at 6 h [2, 10]: < 0.0002; Papp ([3]; Caco-2, pH 7.4): > 300 ×10⁻⁶ cm/s; Papp B→A [3, 11]: > 300 ×10⁻⁶ cm/s; Mass balance A-B (Caco-2 cell monolayer [4]; buffer (HBSS/HEPES pH 7.4) in both chambers, listed as atovaquone): < 10%; Mass balance B-A (Caco-2 cell monolayer [4]; buffer pH 7.4 in both chambers, listed as atovaquone): < 10%"
0.86,32 ± 2.9,37 ± 4,92 ± 3.8,92 ± 0.58%,,,,,,"CC(=O)Nc1ccc(O)cc1 [Paracetamol, paracetamol]",90,
0.12,4.5 ± 0.12,,33 ± 1.7,81 ± 6.1^b %,Intermediate,93 ± 4.0,88 ± 4.6%,High (Papp ≥ 8.15),7.1 ± 1.9,"CCN(CC)Cc1cc(Nc2ccnc3cc(Cl)ccc23)ccc1O [Amodiaquine, amodiaquine]",,Papp A→B (in vitro): 90 ± 8.3 ×10⁻⁶ cm/s; Papp B→A (in vitro): 63 ± 9.6 ×10⁻⁶ cm/s; efflux ratio ([3]; buffer pH 7.4 in both chambers): 1.6 ± 0.43; efflux ratio ([3]; human plasma in both chambers): 0.7 ± 0.12
,,> 300,<10,100 ± 8.1%,Low (Papp < 0.839),<10,100 ± 5.8%,High (Papp ≥ 8.15),,"Clc1ccc2c(N3CCN(CCCN4CCN(c5ccnc6cc(Cl)ccc56)CC4)CC3)ccnc2c1 [Piperaquine, piperaquine]",,"fraction unbound at 6 h [2, 10]: < 0.001; Papp ([3]; Caco-2, pH 7.4): > 300 ×10⁻⁶ cm/s; Papp B→A [3, 11]: > 300 ×10⁻⁶ cm/s; Mass balance A-B (Caco-2 cell monolayer [4]; buffer (HBSS/HEPES pH 7.4) in both chambers, listed as piperaquine): < 10%; Mass balance B-A (Caco-2 cell monolayer [4]; buffer pH 7.4 in both chambers, listed as piperaquine): < 10%"
,,,,,High (Papp ≥ 4.90),,,High (Papp ≥ 8.15),,"CCN(CC)CCCC(C)Nc1ccnc2cc(Cl)ccc12 (stereo not drawn) [Chloroquine, chloroquine]",,"Permeability Classification (Caco-2 cell monolayer [4]; buffer pH 7.4, listed as chloroquine): high; Permeability Classification (Caco-2 cell monolayer [4]; human plasma, listed as chloroquine): high"
,,,,,,,,,,lucifer yellow,,"Mass balance (Caco-2 cell monolayer [5]; Caco-2): > 80%; Mass balance A-B (Caco-2 cell monolayer [5]; Caco-2): 98 ± 4.7%; Papp A-B (Caco-2 cell monolayer [5]; Caco-2): 0.17 ± 0.069 10^−6 cm/s; Mass balance A-B (Caco-2 cell monolayer [5]; Caco-2, pH 7.4): 86 ± 6.7%; Papp A-B (Caco-2 cell monolayer [5]; Caco-2, pH 7.4): 0.21 ± 0.085 10^−6 cm/s; Human FA (fraction absorbed) ([1]; in vivo): 0%; fu (fraction unbound in plasma) ([2]; human, plasma): 0.51"
0.76,1.7 ± 0.45,,,,,,,,,"CN/C(=N/CCSCc1nc[nH]c1C)NC#N [Cimetidine, cimetidine]",64,Papp A→B (in vitro): 1.9 ± 0.26 ×10⁻⁶ cm/s; Mass balance (Caco-2 cell monolayer [4]): > 80%
0.25,58 ± 4.5,,,,,97 ± 0.58,99 ± 2.3%,,52 ± 4,"CC(C)NCC(O)COc1cccc2ccccc12 (stereo not drawn) [Propranolol, propranolol]",,"Increase in Papp using plasma compared to buffer (Caco-2 cell monolayer [5]; human, Caco-2, pH 7.4): 2-3 fold; Papp A→B (in vitro): 120 ± 35 ×10⁻⁶ cm/s; Papp B→A (in vitro): 110 ± 19 ×10⁻⁶ cm/s"
0.35,1.6 ± 0.32,1.2 ± 0.058,99 ± 11,98 ± 1.5%,,99 ± 1.2,92 ± 4.7%,,9.7 ± 1.1,"COC(=O)c1ccccc1-c1c2ccc(=N)cc-2oc2cc(N)ccc12 [Rhodamine 123, rhodamine 123]",,"efflux ratio ([3]; buffer pH 7.4 in both chambers): 6.1 ± 1.4; efflux ratio ([3]; human plasma in both chambers): 12 ± 1.4; Papp B→A [3, 11]: 14 ± 1.5 ×10⁻⁶ cm/s"
,,,,,,,,,,"CC(C)(C)NCc1cc(Nc2ccnc3cc(Cl)ccc23)c2c(c1O)CCCC2 [Naphthoquine, naphthoquine]",,"Efflux ratio (B-A/A-B) (Caco-2 cell monolayer [5]; Caco-2): 0.78 ± 0.12; Mass balance B-A (Caco-2 cell monolayer [5]; Caco-2): 94 ± 14%; Papp A-B (Caco-2 cell monolayer [5]; Caco-2): 230 ± 32^b 10^−6 cm/s; Papp B-A (Caco-2 cell monolayer [5]; Caco-2): 180 ± 10^b 10^−6 cm/s; Efflux ratio (B-A/A-B) (Caco-2 cell monolayer [5]; Caco-2, pH 7.4): 2.0 ± 1.3; Mass balance A-B (Caco-2 cell monolayer [5]; Caco-2, pH 7.4): 31 ± 7.2%; Mass balance B-A (Caco-2 cell monolayer [5]; Caco-2, pH 7.4): 70 ± 10%; Papp A-B (Caco-2 cell monolayer [5]; Caco-2, pH 7.4): 2.2 ± 1.3 10^−6 cm/s; Papp B-A (Caco-2 cell monolayer [5]; Caco-2, pH 7.4): 4.5 ± 1.4 10^−6 cm/s; Permeability Classification (Caco-2 cell monolayer [5]; Caco-2, pH 7.4): Intermediate; fu (fraction unbound in plasma) [2, 10]: 0.019 ^e"
,,,,,,,,,,"CC(C)NCC(O)COc1ccc(CC(N)=O)cc1 (stereo not drawn) [Atenolol, atenolol]",55,
,2.1 ± 0.65,,15 ± 2.6,70 ± 2.6^b %,Intermediate,86 ± 6.7,86 ± 3.1%,High (Papp ≥ 8.15),4.7 ± 0.35,"OC(c1cc(C(F)(F)F)nc2c(C(F)(F)F)cccc12)C1CCCCN1 (stereo not drawn) [Mefloquine, mefloquine]",,"Papp A→B (in vitro): 180 ± 20 ×10⁻⁶ cm/s; Papp B→A (in vitro): 150 ± 10 ×10⁻⁶ cm/s; fraction unbound at 6 h [2, 10]: 0.015; efflux ratio ([3]; buffer pH 7.4 in both chambers): 2.2 ± 0.7; efflux ratio ([3]; human plasma in both chambers): 0.83 ± 0.11; Mass balance A-B (Caco-2 cell monolayer [4]; human plasma in both chambers, listed as mefloquine): 60–70%"
0.7,50 ± 6.1,,,,,,,,,"COCCc1ccc(OCC(O)CNC(C)C)cc1 (stereo not drawn) [Metoprolol, metoprolol]",,Papp A→B (in vitro): 57 ± 5.8 ×10⁻⁶ cm/s
0.04,2.4 ± 1.4,8.4 ± 2.5,76 ± 0.58,100 ± 7.2^b %,,60 ± 5.6,110 ± 7.5^b %,,34 ± 2.1,CC(C)(C)NC(=O)[C@@H]1C[C@@H]2CCCC[C@@H]2CN1C[C@@H](O)[C@H](Cc1ccccc1)NC(=O)[C@H](CC(N)=O)NC(=O)c1ccc2ccccc2n1 [Saquinavir],,"Papp B→A [3, 11]: 140 ± 42 ×10⁻⁶ cm/s"
,,,,,,,,,,"COc1ccc2cc([C@H](C)C(=O)O)ccc2c1 [Naproxen, naproxen]",100,
0.83,0.29 ± 0.051,0.31 ± 0.081,99 ± 2.3,96 ± 4.0%,,99 ± 1.7,97 ± 5.2%,,0.56 ± 0.026,"OC[C@@H](O)[C@@H](O)[C@H](O)[C@H](O)CO [^14C-Mannitol, D-[1-^14C]-mannitol]",26,"efflux ratio ([3]; buffer pH 7.4 in both chambers): 1.9 ± 0.35; efflux ratio ([3]; human plasma in both chambers): 1.4 ± 0.37; Papp B→A [3, 11]: 0.43 ± 0.021 ×10⁻⁶ cm/s; Mass balance (Caco-2 cell monolayer [4]): > 80%"

Compound,fraction unbound [2],"Papp A→B [3, 7] [×10⁻⁶ cm/s]","Papp A→B [3, 8] [×10⁻⁶ cm/s]",Mass balance A-B (Caco-2 cell monolayer [4]; [9]) [%],Mass balance A-B (Caco-2 cell monolayer [4]; human plasma in both chambers),Permeability Classification (Caco-2 cell monolayer [4]; buffer pH 7.4),Mass balance B-A (Caco-2 cell monolayer [4]; buffer pH 7.4 in both chambers) [%],Mass balance B-A (Caco-2 cell monolayer [4]; human plasma in both chambers),Permeability Classification (Caco-2 cell monolayer [4]; human plasma),"Papp B→A [3, 12] [×10⁻⁶ cm/s]","Human FA (fraction absorbed) [1, 6] [%]",other results
"CCCCN(CCCC)CCC(O)c1cc2c(Cl)cc(Cl)cc2c2cc(C(F)(F)F)ccc12 (stereo not drawn) [Halofantrine, halofantrine]",,,,<10,83 ± 7.6%,Low (Papp < 0.839),<10,87 ± 4.4%,High (Papp ≥ 8.15),,,"fraction unbound at 6 h [2, 10]: < 0.0001; Papp ([3]; Caco-2, pH 7.4): > 300 ×10⁻⁶ cm/s; Papp A→B ([3]; Caco-2, pH 7.4): > 300 ×10⁻⁶ cm/s; Papp B→A ([3]; Caco-2, pH 7.4): > 300 ×10⁻⁶ cm/s; Mass balance A-B (Caco-2 cell monolayer [4]; buffer (HBSS/HEPES pH 7.4) in both chambers, listed as halofantrine): < 10%; Mass balance B-A (Caco-2 cell monolayer [4]; buffer pH 7.4 in both chambers, listed as halofantrine): < 10%"
"CC(C)(C)NCC(O)COc1ccc(NC(=O)NC2CCCCC2)cc1 (stereo not drawn) [Talinolol, talinolol]",0.48,,,,,,,,,,,
